Experimental findings from patent US9271960B2, “Tetrahydrocarbazoles as active agents for inhibiting VEGF production by translational control” (PTC Therapeutics, Inc., priority 2004, dated 2016) are described below.

Bounds are passed on as bounds.

The first assay has as its system VEGF. The assay can be described thus: Hypoxia-inducible endogenous VEGF expression ELISA in HeLa cells. It counts as cell-based. Conditions: Homo sapiens, HeLa, compounds 1-155, hypoxic conditions (1% O2), VEGF protein by ELISA, read-out: ELISA Activity. In outline: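 HeLa cells held 24–48 h in hypoxia (1% O2) with a concentration series of compound; VEGF secreted into media quantified by ELISA against a standard curve. Parallel Cell Titer Glo viability under identical conditions gives CC50; EC50 from percent-inhibition curves.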
A general note: ELISA stands for enzyme-linked immunosorbent assay.
Consider `c1ccc2c3c([nH]c2c1)C(Nn1cccc1)CCC3` (stereo not shown) [Compound 101, Pyrrol-1-yl-(2,3,4,9-tetrahydro-1H-carbazol-1-yl)-amine], for which the EC50 is above 1000 nM.

As for `O=C1c2sccc2CN1C1CCCc2c1[nH]c1ccc(Cl)cc21` (stereo not shown) [Compound 148, 5-(6-Chloro-2,3,4,9-tetrahydro-1H-carbazol-1-yl)-4,5-dihydro-thieno[2,3-c]pyrrol-6-one], the EC50 is below 10 nM.

Regarding `Brc1ccc2[nH]c3c(c2c1)CCCC3Nc1ccccc1` (stereo not shown) [Compound 2, (6-Bromo-2,3,4,9-tetrahydro-1H-carbazol-1-yl)-phenyl-amine], the EC50 was below 10 nM.

Consider `COc1cccc(C2CCCc3c2[nH]c2ccc(Br)cc32)c1` (stereo not shown) [Compound 16, 6-Bromo-1-(3-methoxy-phenyl)-2,3,4,9-tetrahydro-1H-carbazole], for which the EC50 was below 10 nM.

For `OCCc1cccc(NC2CCCc3c2[nH]c2ccc(Br)cc32)c1` (stereo not shown) [Compound 63, 2-[3-(6-Bromo-2,3,4,9-tetrahydro-1H-carbazol-1-ylamino)-phenyl]-ethanol], the EC50 lay in the range of 200 to 1000 nM.

Consider `O=C1N(c2ccccc2)C2CCCc3c2n1c1ccc(Br)cc31` (stereo not shown) [Compound 112, 7-Bromo-2-phenyl-2a,3,4,5-tetrahydro-2H-2,9b-diaza-cyclopenta[jk]fluoren-1-one], for which the EC50 was above 1000 nM.

Consider `Brc1ccc2[nH]c3c(c2c1)CCCC3Nc1ccc2c(c1)OCO2` (stereo not shown) [Compound 18, Benzo[1,3]dioxol-5-yl-(6-bromo-2,3,4,9-tetrahydro-1H-carbazol-1-yl)-amine], for which the EC50 was below 10 nM.

Take `Cc1ccc2[nH]c3c(c2c1)CCCC3Nc1ccccc1` (stereo not shown) [Compound 11, (6-Methyl-2,3,4,9-tetrahydro-1H-carbazol-1-yl)-phenyl-amine]: the EC50 was below 10 nM.

Take `Brc1ccc2oc3c(c2c1)CCCC3Nc1ccccc1` (stereo not shown) [Compound 107, (8-Bromo-1,2,3,4-tetrahydro-dibenzofuran-4-yl)-phenyl-amine]: the EC50 is above 1000 nM.

Turning to `O=C(O)c1ccc2[nH]c3c(c2c1)CCCC3n1cccc1` (stereo not shown) [Compound 120, 8-Pyrrol-1-yl-6,7,8,9-tetrahydro-5H-carbazole-3-carboxylic acid], the EC50 is above 1000 nM.

Regarding `CC(=O)Nc1ccc(NC2CCCc3c2[nH]c2ccc(Br)cc32)cc1` (stereo not shown) [Compound 57, N-[4-(6-Bromo-2,3,4,9-tetrahydro-1H-carbazol-1-ylamino)-phenyl]-acetamide], the EC50 was in the range of 200 to 1000 nM.

As for `FC(F)(F)c1ccc2[nH]c3c(c2c1)CCCC3Nc1ccccc1` (stereo not shown) [Compound 14, Phenyl-(6-trifluoromethyl-2,3,4,9-tetrahydro-1H-carbazol-1-yl)-amine], the EC50 was below 10 nM.

As to `Brc1ccc2[nH]c3c(c2c1)CCCC3N1CC=CC1` (stereo not shown) [Compound 65, 6-Bromo-1-(2,5-dihydro-pyrrol-1-yl)-2,3,4,9-tetrahydro-1H-carbazole], the EC50 fell in the range of 200 to 1000 nM.

On to `COC(=O)c1ccn(C2CCCc3c2[nH]c2ccc(Br)cc32)c1` (stereo not shown) [Compound 26, 1-(6-Bromo-2,3,4,9-tetrahydro-1H-carbazol-1-yl)-1H-pyrrole-3-carboxylic acid methyl ester], for which the EC50 was in the range of 10 to 40 nM.

For the molecule `O=C(NC1CCCc2c1[nH]c1ccc(Br)cc21)c1ccc(F)cc1F` (stereo not shown) [Compound 133, N-(6-Bromo-2,3,4,9-tetrahydro-1H-carbazol-1-yl)-2,4-difluoro-benzamide], the EC50 is below 10 nM.

Take `CC(C)(C)CCNC1CCCc2c1[nH]c1ccc(Br)cc21` (stereo not shown) [Compound 79, (6-Bromo-2,3,4,9-tetrahydro-1H-carbazol-1-yl)-(3,3-dimethyl-butyl)-amine]: the EC50 is above 1000 nM.

As for `COc1ccc(C(=O)NC2CCCc3c2[nH]c2ccc(Br)cc32)cc1` (stereo not shown) [Compound 130, N-(6-Bromo-2,3,4,9-tetrahydro-1H-carbazol-1-yl)-4-methoxy-benzamide], the EC50 was 10 to 40 nM.

Take `CC(=O)n1c2c(c3cc(Br)ccc31)CCCC2` [Compound 86, 1-(6-Bromo-1,2,3,4-tetrahydro-carbazol-9-yl)-ethanone]: the EC50 was above 1000 nM.

As for `N#Cc1ccn(C2CCCc3c2[nH]c2ccc(Br)cc32)c1` (stereo not shown) [Compound 42, 1-(6-Bromo-2,3,4,9-tetrahydro-1H-carbazol-1-yl)-1H-pyrrole-3-carbonitrile], the EC50 was 40 to 200 nM.

For `COc1ccc(NC2CCCc3c2[nH]c2ccc(Br)cc32)cc1` (stereo not shown) [Compound 4, (6-Bromo-2,3,4,9-tetrahydro-1H-carbazol-1-yl)-(4-methoxy-phenyl)-amine], the EC50 is below 10 nM.

`c1ccn(C2CCCc3c2[nH]c2ccc(N4CCOCC4)cc32)c1` (stereo not shown) [Compound 104, 6-Morpholin-4-yl-1-pyrrol-1-yl-2,3,4,9-tetrahydro-1H-carbazole]: the EC50 is above 1000 nM.

For `O=C(NC1CCCc2c1[nH]c1ccc(Br)cc21)C1CC1` (stereo not shown) [Compound 147, Cyclopropanecarboxylic acid (6-bromo-2,3,4,9-tetrahydro-1H-carbazol-1-yl)-amide], the EC50 lay in the range of 40 to 200 nM.

Take `FC(F)(F)Oc1ccc(NC2CCCc3c2[nH]c2ccc(Br)cc32)cc1` (stereo not shown) [Compound 19, (6-Bromo-2,3,4,9-tetrahydro-1H-carbazol-1-yl)-(4-trifluoromethoxy-phenyl)-amine]: the EC50 is below 10 nM.

For the molecule `O=C(Nc1ccccc1)C1CCCc2c1[nH]c1ccc(Br)cc21` (stereo not shown) [Compound 91, 6-Bromo-2,3,4,9-tetrahydro-1H-carbazole-1-carboxylic acid phenylamide], the EC50 was above 1000 nM.

For the molecule `O=C1CCCc2c1[nH]c1ccc(Br)cc21` [Compound 50, 6-Bromo-2,3,4,9-tetrahydro-carbazol-1-one], the EC50 was in the range of 40 to 200 nM.

For `Brc1ccc2[nH]c3c(c2c1)CCCC3NCc1ccco1` (stereo not shown) [Compound 68, (6-Bromo-2,3,4,9-tetrahydro-1H-carbazol-1-yl)-furan-2-ylmethyl-amine], the EC50 fell in the range of 200 to 1000 nM.

Regarding `COc1cccc(CNC2CCCc3c2[nH]c2ccc(Br)cc32)c1OC` (stereo not shown) [Compound 55, (6-Bromo-2,3,4,9-tetrahydro-1H-carbazol-1-yl)-(2,3-dimethoxy-benzyl)-amine], the EC50 was 40 to 200 nM.

As to `O=C(NC1CCCc2c1[nH]c1ccc(Br)cc21)c1ccc(Cl)cc1` (stereo not shown) [Compound 134, N-(6-Bromo-2,3,4,9-tetrahydro-1H-carbazol-1-yl)-4-chloro-benzamide], the EC50 lay within 10 to 40 nM.

With `O/N=C1\CCCc2c1[nH]c1c(Br)cccc21` [Compound 98, 8-Bromo-2,3,4,9-tetrahydro-carbazol-1-one oxime], the EC50 is above 1000 nM.

On to `Brc1ccc2[nH]c3c(c2c1)CCCC3Nc1ncccn1` (stereo not shown) [Compound 141, (6-Bromo-2,3,4,9-tetrahydro-1H-carbazol-1-yl)-pyrimidin-2-yl-amine], for which the EC50 was below 10 nM.

As to `Clc1ccc2[nH]c3c(c2c1)CCCC3n1cccc1` (stereo not shown) [Compound 37, 6-Chloro-1-pyrrol-1-yl-2,3,4,9-tetrahydro-1H-carbazole], the EC50 is 40 to 200 nM.

Consider `FC(F)(F)c1ccc(NC2CCCc3c2[nH]c2ccc(Br)cc32)cc1` (stereo not shown) [Compound 6, (6-Bromo-2,3,4,9-tetrahydro-1H-carbazol-1-yl)-(4-trifluoromethyl-phenyl)-amine], for which the EC50 is below 10 nM.

Turning to `Fc1ccc(NC2CCCc3c2[nH]c2ccc(Br)cc32)cc1` (stereo not shown) [Compound 24, (6-Bromo-2,3,4,9-tetrahydro-1H-carbazol-1-yl)-(4-fluoro-phenyl)-amine], the EC50 lay in the range of 10 to 40 nM.

In the case of `Brc1ccc2[nH]c3c(c2c1)CCCC3Nc1ccc(N2CCOCC2)cc1` (stereo not shown) [Compound 40, (6-Bromo-2,3,4,9-tetrahydro-1H-carbazol-1-yl)-(4-morpholin-4-yl-phenyl)-amine], the EC50 lay within 40 to 200 nM.

Consider `O/N=C/c1ccn(C2CCCc3c2[nH]c2ccc(Br)cc32)c1` (stereo not shown) [Compound 149, 1-(6-Bromo-2,3,4,9-tetrahydro-1H-carbazol-1-yl)-1H-pyrrole-3-carbaldehyde oxime], for which the EC50 was 40 to 200 nM.

The same assay, now with this note: Homo sapiens, HeLa, compounds 191-239, hypoxic conditions, VEGF protein by ELISA, read-out: ELISA Activity EC50.
For `CC(=O)N1CCN(CC(O)COc2ccc(C3CCCc4c3[nH]c3ccc(Cl)cc43)cc2)CC1` (stereo not shown) [Compound 214], the EC50 lay in the range of 40 to 200 nM.

On to `COCCN(CCOC)CC(O)COc1ccc(C2CCCc3c2[nH]c2ccc(Cl)cc32)cc1` (stereo not shown) [Compound 216], for which the EC50 is 10 to 40 nM.

Turning to `OC(COc1ccc(C2CCCc3c2[nH]c2ccc(Br)cc32)cc1)Cn1ccnn1` (stereo not shown) [Compound 202], the EC50 is below 10 nM.

`COCCN(C)CC(O)COc1ccc(C2CCCc3c2[nH]c2ccc(Br)cc32)cc1` (stereo not shown) [Compound 200]: the EC50 is below 10 nM.

`OC(COc1ccc(C2CCCCc3c2[nH]c2ccc(Cl)cc32)cc1)Cn1ccnc1` (stereo not shown) [Compound 231]: the EC50 was below 10 nM.

Take `Oc1ccc(C2CCCc3c2[nH]c2ccc(Br)cc32)cc1` (stereo not shown) [Compound 193]: the EC50 lay in the range of 10 to 40 nM.

The same assay, now with this note: Homo sapiens, HeLa, purchased compounds 156-188, hypoxic conditions, VEGF protein by ELISA, read-out: ELISA Activity.
Consider `Cc1ccc2c(c1)c1c3n2CCN(N=O)C3CCC1` (stereo not shown) [Compound 162, 8-Methyl-3-nitroso-2,3,3a,4,5,6-hexahydro-1H-pyrazino[3,2,1-jk]carbazole], for which the EC50 lay in the range of 200 to 1000 nM.

`Cc1ccc2[nH]c3c(c2c1)CCCC3NCC12CC3CC(CC(C3)C1)C2` (stereo not shown) [Compound 159, Adamantan-1-ylmethyl-(6-methyl-2,3,4,9-tetrahydro-1H-carbazol-1-yl)-amine]: the EC50 lay within 200 to 1000 nM.

As to `CC(=O)Nc1ccc(CN2CCCn3c4c(c5cc(C)ccc53)CCCC42)cc1` (stereo not shown) [Compound 181, N-[4-(11-Methyl-1,2,3,3a,6,7-hexahydro-5H-[1,4]diazepino[3,2,1-jk]carbazol-4-ylmethyl)-phenyl]-acetamide], the EC50 is above 1000 nM.

Consider `Cc1ccc2c(c1)c1c3n2CCCNC3CCC1` (stereo not shown) [Compound 173, 11-Methyl-1,2,3,3a,4,5,6,7-octahydro-[1,4]diazepino[3,2,1-jk]carbazole], for which the EC50 is above 1000 nM.

The same assay, now with this note: Homo sapiens, HeLa, purchased compounds 156-188, hypoxic conditions, VEGF protein by ELISA, read-out: ELISA EC50.
Turning to `Cc1ccc2c(c1)c1c3n2CCN(N=O)C3CCC1` (stereo not shown) [Compound 162, 8-Methyl-3-nitroso-2,3,3a,4,5,6-hexahydro-1H-pyrazino[3,2,1-jk]carbazole], the EC50 was found to be 890 nM.

With `Cc1ccc2[nH]c3c(c2c1)CCCC3NCC12CC3CC(CC(C3)C1)C2` (stereo not shown) [Compound 159, Adamantan-1-ylmethyl-(6-methyl-2,3,4,9-tetrahydro-1H-carbazol-1-yl)-amine], the EC50 was found to be 360 nM.

For the molecule `CC(=O)Nc1ccc(CN2CCCn3c4c(c5cc(C)ccc53)CCCC42)cc1` (stereo not shown) [Compound 181, N-[4-(11-Methyl-1,2,3,3a,6,7-hexahydro-5H-[1,4]diazepino[3,2,1-jk]carbazol-4-ylmethyl)-phenyl]-acetamide], the EC50 is above 10000 nM.

As to `Cc1ccc2c(c1)c1c3n2CCCNC3CCC1` (stereo not shown) [Compound 173, 11-Methyl-1,2,3,3a,4,5,6,7-octahydro-[1,4]diazepino[3,2,1-jk]carbazole], the EC50 was above 10000 nM.
